Measured values: US7402683B2, “Cinnamic acid amides” (Bayer HealthCare AG, priority 2002, dated 2008)

Legend:
[1] = tested on: Haemophilus influenzae Spain 7; experiment: Determination of the minimum inhibitory concentration (MIC), liquid dilution test; type: cell-based; conditions: BHI broth plus 20% bovine serum, 10 μg/ml hemin and 1% Isovitale, 37° C., 18-24 hours, 8-10% CO2
Experimental: (§1) Determination of the Minimum Inhibitory Concentration (MIC):
(§2) The MIC is determined in a liquid dilution test. Overnight cultures of the test organisms are diluted to a cell count of 10^5 organisms per ml in Isosensitest medium (Difco, Irvine, USA) and are incubated with dilutions of the test substances (1:2 dilution stages). Exceptions are the tests with S. pneumoniae G9A, which are conducted in BHI broth (Difco) plus 20% bovine serum, and with H. influenzae, which are conducted in BHI broth (Difco) plus 20% bovine serum, 10 μg/ml hemin and 1% Isovitale (Becton Dickinson, N.J., USA).
(§3) The cultures are incubated at 37° C. for 18-24 hours; S. pneumoniae and H. influenzae in the presence of 8-10% CO2.
(§4) The lowest concentration of each substance at which there is no longer any visible bacterial growth is defined as the MIC. The MICs in μmol/1 of some compounds of the invention against a series of test organisms are listed by way of example in the table below.

[2] = tested on: Staphylococcus aureus 133; experiment: as above; type: cell-based; conditions: Isosensitest medium, 10^5 organisms per ml, 37° C., 18-24 hours; lowest concentration with no visible bacterial growth
Experimental: as §1, §2, §3, §4

[3] = tested on: bacteria; conditions: described in the literature; cited from earlier work

CC(C)[C@H](NC(=O)C[C@H](NC(=O)/C=C/c1ccc2c(c1)OCO2)c1ccccc1)C(=O)[C@@H]1C(=O)NC(=O)[C@H]1C [Example 1, (2E)-3-(1,3-Benzodioxol-5-yl)-N-{(1S)-3-[((1S)-2-methyl-1-{[(3R,4S)-4-methyl-2,5-dioxo-3-pyrrolidinyl]carbonyl}propyl)amino]-3-oxo-1-phenylpropyl}-2-propenamide]
MIC Haemophilus influenzae Spain 7 [1]: 31.3 μmol/1 | MIC Staphylococcus aureus 133 [2]: 3.9 μmol/1

C[C@@H]1C(=O)NC(=O)[C@H]1C(=O)[C@@H](NC(=O)C[C@H](NC(=O)/C=C/c1ccc2c(c1)OCO2)c1ccccc1)C(C)(C)C [Example 2, (2E)-3-(1,3-Benzodioxol-5-yl)-N-{(1S)-3-[((1S)-2,2-dimethyl-1-{[(3R,4S)-4-methyl-2,5-dioxo-3-pyrrolidinyl]carbonyl}propyl)amino]-3-oxo-1-phenylpropyl}-2-propenamide]
MIC Haemophilus influenzae Spain 7 [1]: 31.3 μmol/1 | MIC Staphylococcus aureus 133 [2]: 7.8 μmol/1

CC(C)[C@H](NC(=O)CC(NC(=O)/C=C/c1ccc2c(c1)OCO2)c1ccc2c(c1)OCCO2)C(=O)[C@@H]1C(=O)NC(=O)[C@H]1C (stereo partly drawn) [Example 5, (2E)-3-(1,3-Benzodioxol-5-yl)-N-{1-(2,3-dihydro-1,4-benzodioxin-6-yl)-3-[((1S)-2-methyl-1-{[(3R,4S)-4-methyl-2,5-dioxo-3-pyrrolidinyl]carbonyl}propyl)amino]-3-oxopropyl}-2-propenamide]
MIC Haemophilus influenzae Spain 7 [1]: 3.9 μmol/1 | MIC Staphylococcus aureus 133 [2]: 7.8 μmol/1

CC(C)[C@H](NC(=O)C[C@H](NC(=O)/C=C/c1ccsc1)c1ccccc1)C(=O)[C@@H]1C(=O)NC(=O)[C@H]1C [Example 11]
MIC Haemophilus influenzae Spain 7 [1]: 62.5 μmol/1 | MIC Staphylococcus aureus 133 [2]: 7.8 μmol/1

C[C@@H]1C(=O)NC(=O)[C@H]1C(=O)[C@@H](NC(=O)C[C@H](NC(=O)/C=C/c1ccc2c(c1)OCO2)c1ccccc1)C1CCCC1 [Example 31, (2E)-3-(2H-Benzo[d]1,3-dioxolan-5-yl)-N-((1S)-2-{N-[(1S)-2-((4S,3R)-4-methyl-2,5-dioxoazolin-3-yl)-1-cyclopentyl-2-oxoethyl]carbamoyl}-1-phenylethyl)prop-2-enamide]
MIC Haemophilus influenzae Spain 7 [1]: 31.3 μmol/1 | MIC Staphylococcus aureus 133 [2]: <1 μmol/1

C[C@@H]1C(=O)N(N)C(=O)[C@H]1C(=O)[C@@H](NC(=O)C[C@H](NC(=O)/C=C/c1ccc(C#N)cc1)c1ccccc1)C1CCCC1 [Example 34, (2E)-N-((1S)-2-{N-[(1S)-2-((4S,3R)-1-amino-4-methyl-2,5-dioxoazolidin-3-yl)-1-cyclopentyl-2-oxoethyl]carbamoyl}-1-phenylethyl)-3-(4-cyanophenyl)prop-2-enamide]
MIC Haemophilus influenzae Spain 7 [1]: 7.8 μmol/1 | MIC Staphylococcus aureus 133 [2]: <1 μmol/1

CC(C)[C@H](NC(=O)CC(NC(=O)/C=C/c1ccc2c(c1)OCO2)c1ccc2ccccc2c1)C(=O)[C@@H]1C(=O)NC(=O)[C@H]1C (some centres unmarked) [Example 92]
MIC Haemophilus influenzae Spain 7 [1]: 15.6 μmol/1 | MIC Staphylococcus aureus 133 [2]: <1 μmol/1

C/C=C/C=C/C=C/C(=O)N[C@@H](CC(=O)N[C@H](C(=O)[C@@H]1C(=O)NC(=O)[C@H]1C)C(C)C)c1ccccc1 [andrimid]
antibacterial activity [3]: having antibacterial activity

C/C=C/C=C/C(=O)N[C@@H](CC(=O)N[C@H](C(=O)[C@@H]1C(=O)NC(=O)[C@H]1C)C(C)C)c1ccccc1 [moiramide B]
antibacterial activity [3]: having antibacterial activity

C/C=C/C=C/C=C/C(=O)N[C@@H](CC(=O)N[C@H](C(=O)[C@@]1(O)C(=O)NC(=O)[C@H]1C)C(C)C)c1ccccc1 [moiramide C]
antibacterial activity [3]: inactive
